{"source": "patent US9181183B2", "about": "“Prostaglandin D synthase inhibitory piperidine compounds” (Taiho Pharmaceutical Co., Ltd., priority 2010, dated 2015)", "target": "human H-PGDS (Homo sapiens, UniProt O60760)", "sequence (O60760 whole entry)": "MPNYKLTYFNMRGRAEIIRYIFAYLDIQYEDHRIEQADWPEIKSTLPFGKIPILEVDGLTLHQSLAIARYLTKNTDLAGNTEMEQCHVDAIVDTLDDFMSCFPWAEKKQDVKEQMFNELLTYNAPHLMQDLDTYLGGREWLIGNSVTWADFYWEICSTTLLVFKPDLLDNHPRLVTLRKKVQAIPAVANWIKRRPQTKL", "assay": "Hematopoietic prostaglandin D synthase (H-PGDS) inhibiting action, [14C]PGH2 to PGD2 conversion, TLC radioassay", "format": "biochemical", "settings": "compound 0.1 μM; inhibition rate relative to solvent control group; [14C] prostaglandin H2 10 μM, 25° C.; read-out: H-PGDS inh. (% at 0.1 μM)", "procedure": "The test was carried out according to the method of Urade, Y. et al. (J. Biol. Chem., 262, 3820-3825, (1987)). More specifically, a reaction mixture (49 μL) containing 100 mM Tris-HCl (pH 8.0), 1 mM reduced form glutathione, 0.1 mg/mL γ-globulin, human H-PGDS (q.s.), and a compound (0.1 μM) was preincubated at 25° C. for 5 minutes. A DMSO solution (final concentration: 1%) was added to the solvent control group. Subsequently, 1 μL of [^14C] prostaglandin H2 (final concentration: 10 μM) was added to start the reaction. One minute after the start of the reaction, 250 μL of a reaction stopper solution (diethylether/methanol/1M citric acid (30/4/1)) cooled with ice was added to stop the reaction. After the reaction was stopped, 50 μL of the upper layer portion (organic solvent phase) was applied to a TLC plate and developed at −20° C. for 45 minutes (developing solvent: diethylether/methanol/acetic acid (90/2/1)). After the TLC plate was dried and exposed to an imaging plate for 1 to 24 hours, the radioactivity corresponding to prostaglandin D2 (PGD2) was analyzed using an image analyzer (produced by Fujifilm Corporation). The area (%) occupied by the PGD2 band per lane and the inhibition rate (%) of each Example compound at 0.1 μM relative to the control group in each experiment were calculated."}
{"smiles": "O=C(Nc1nc2ccc(Br)cc2s1)N1CCC(=Cc2ccccn2)CC1", "note": "[Example 1, N-(6-bromobenzo[d]thiazol-2-yl)-4-(pyridin-2-ylmethylene)-piperidine-1-carboxamide]", "values": [{"measurement": "inhibition at 0.1 µM", "result": 70.9, "unit": "%"}]}
{"smiles": "O=C(Nc1nc2ccc(-c3cccnc3)cc2s1)N1CCC(=Cc2ccccn2)CC1", "note": "[Example 3, N-(6-(pyridin-3-yl)-benzo[d]thiazol-2-yl)-4-(pyridin-2-ylmethylene)-piperidine-1-carboxamide]", "values": [{"measurement": "inhibition at 0.1 µM", "result": 85.7, "unit": "%"}]}
{"smiles": "Cc1noc(C)c1-c1ccc2nc(NC(=O)N3CCC(=Cc4ccccn4)CC3)sc2c1", "note": "[Example 4, N-(6-(3,5-dimethylisoxazol-4-yl)-benzo[d]thiazol-2-yl)-4-(pyridin-2-ylmethylene)-piperidine-1-carboxamide]", "values": [{"measurement": "inhibition at 0.1 µM", "result": 62.9, "unit": "%"}]}
{"smiles": "O=C(Nc1nc2ccc(-c3ccncc3)cc2s1)N1CCC(=Cc2ccccn2)CC1", "note": "[Example 5, N-(6-(pyridin-4-yl)-benzo[d]thiazol-2-yl)-4-(pyridin-2-ylmethylene)-piperidine-1-carboxamide]", "values": [{"measurement": "inhibition at 0.1 µM", "result": 77.8, "unit": "%"}]}
{"smiles": "O=C(Nc1nc2ccc(-c3cncnc3)cc2s1)N1CCC(=Cc2ccccn2)CC1", "note": "[Example 6, N-(6-(pyrimidin-5-yl)-benzo[d]thiazol-2-yl)-4-(pyridin-2-ylmethylene)-piperidine-1-carboxamide]", "values": [{"measurement": "inhibition at 0.1 µM", "result": 78.8, "unit": "%"}]}
{"smiles": "COc1ccc(-c2ccc3nc(NC(=O)N4CCC(=Cc5ccccn5)CC4)sc3c2)cn1", "note": "[Example 7, N-(6-(2-methoxypyridin-5-yl)-benzo[d]thiazol-2-yl)-4-(pyridin-2-ylmethylene)-piperidine-1-carboxamide]", "values": [{"measurement": "inhibition at 0.1 µM", "result": 74.2, "unit": "%"}]}
{"smiles": "O=C(Nc1nc2ccc(-c3cccs3)cc2s1)N1CCC(=Cc2ccccn2)CC1", "note": "[Example 8, N-(6-(thiophen-2-yl)-benzo[d]thiazol-2-yl)-4-(pyridin-2-ylmethylene)-piperidine-1-carboxamide]", "values": [{"measurement": "inhibition at 0.1 µM", "result": 80, "unit": "%"}]}
{"smiles": "COc1ncccc1-c1ccc2nc(NC(=O)N3CCC(=Cc4ccccn4)CC3)sc2c1", "note": "[Example 9, N-(6-(2-methoxypyridin-3-yl)-benzo[d]thiazol-2-yl)-4-(pyridin-2-ylmethylene)-piperidine-1-carboxamide]", "values": [{"measurement": "inhibition at 0.1 µM", "result": 76.6, "unit": "%"}]}
{"smiles": "Nc1ccc2nc(NC(=O)N3CCC(=Cc4ccccn4)CC3)sc2c1", "note": "[Example 10, N-(6-aminobenzo[d]thiazol-2-yl)-4-(pyridin-2-ylmethylene)-piperidine-1-carboxamide]", "values": [{"measurement": "inhibition at 0.1 µM", "result": 61.9, "unit": "%"}]}
{"smiles": "O=C(Nc1ccc2nc(NC(=O)N3CCC(=Cc4ccccn4)CC3)sc2c1)N1CCOCC1", "note": "[Example 11, N-(2-(4-(pyridin-2-ylmethylene)piperidine-1-carboxamido)benzo[d]thiazol-6-yl)morpholine-4-carboxamide]", "values": [{"measurement": "inhibition at 0.1 µM", "result": 52.4, "unit": "%"}]}
{"smiles": "O=C(Nc1ccc(CCn2ccnn2)cc1)c1cnc(NC(=O)N2CCC(=Cc3ccccn3)CC2)s1", "note": "[Example 14, N-(4-(2-(1H-1,2,3-triazol-1-yl)ethyl)phenyl)-2-(4-(pyridin-2-ylmethylene)piperidine-1-carboxamido)thiazole-5-carboxamide]", "values": [{"measurement": "inhibition at 0.1 µM", "result": 53.9, "unit": "%"}]}
{"smiles": "O=C(Nc1ccc(N2CCCCC2)cc1)c1cnc(NC(=O)N2CCC(=Cc3ccccn3)CC2)s1", "note": "[Example 16, N-(4-(piperidin-1-yl)phenyl)-2-(4-(pyridin-2-ylmethylene)piperidine-1-carboxamido)thiazole-5-carboxamide]", "values": [{"measurement": "inhibition at 0.1 µM", "result": 52.7, "unit": "%"}]}
{"smiles": "O=C(Nc1ncc(C(=O)N2CCCCC2)s1)N1CCC(=Cc2ccccn2)CC1", "note": "[Example 17, N-(5-(piperidin-1-yl-carbonyl)thiazol-2-yl)-4-(pyridin-2-ylmethylene)piperidine-1-carboxamide]", "values": [{"measurement": "inhibition at 0.1 µM", "result": 65, "unit": "%"}]}
{"smiles": "O=C(O)c1ccc(NC(=O)c2cnc(NC(=O)N3CCC(=Cc4ccccn4)CC3)s2)cc1", "note": "[Example 18, 4-(2-(4-(pyridin-2-ylmethylene)piperidine-1-carboxamido)thiazole-5-carboxamido)benzoic acid]", "values": [{"measurement": "inhibition at 0.1 µM", "result": 65.1, "unit": "%"}]}
{"smiles": "O=C(O)c1ccc(-c2cnc(NC(=O)N3CCC(=Cc4ccccn4)CC3)s2)cc1", "note": "[Example 20, 4-(2-(4-(pyridin-2-ylmethylene)piperidine-1-carboxamido)thiazol-5-yl)benzoic acid]", "values": [{"measurement": "inhibition at 0.1 µM", "result": 61.4, "unit": "%"}]}
{"smiles": "O=C(Nc1nccs1)c1ccc(-c2cnc(NC(=O)N3CCC(=Cc4ccccn4)CC3)s2)cc1", "note": "[Example 22, 4-(pyridin-2-ylmethylene)-N-(5-(4-(thiazol-2-ylcarbamoyl)phenyl)thiazol-2-yl)piperidine-1-carboxamide]", "values": [{"measurement": "inhibition at 0.1 µM", "result": 66.5, "unit": "%"}]}
{"smiles": "CS(=O)(=O)NC(=O)c1ccc(-c2cnc(NC(=O)N3CCC(=Cc4ccccn4)CC3)s2)cc1", "note": "[Example 23, N-(5-(4-(methylsulfonylcarbamoyl)phenyl)thiazol-2-yl)-4-(pyridin-2-ylmethylene)piperidine-1-carboxamide]", "values": [{"measurement": "inhibition at 0.1 µM", "result": 65.9, "unit": "%"}]}
{"smiles": "O=C(NS(=O)(=O)c1ccccc1)c1ccc(-c2cnc(NC(=O)N3CCC(=Cc4ccccn4)CC3)s2)cc1", "note": "[Example 24, N-(5-(4-(phenylsulfonylcarbamoyl)phenyl)thiazol-2-yl)-4-(pyridin-2-ylmethylene)piperidine-1-carboxamide]", "values": [{"measurement": "inhibition at 0.1 µM", "result": 68.2, "unit": "%"}]}
{"smiles": "O=C(Nc1ccc(-c2cnc(NC(=O)N3CCC(=Cc4ccccn4)CC3)s2)cc1)c1cscn1", "note": "[Example 26, N-(4-(2-(4-(pyridin-2-ylmethylene)piperidine-1-carboxamido)thiazol-5-yl)phenyl)thiazole-4-carboxamide]", "values": [{"measurement": "inhibition at 0.1 µM", "result": 57.4, "unit": "%"}]}
{"smiles": "O=C(O)c1ccc(-c2cnc(NC(=O)N3CCC(=Cc4ccccn4)CC3)s2)nc1", "note": "[Example 27, 6-(2-(4-(pyridin-2-ylmethylene)piperidine-1-carboxamido)thiazol-5-yl)nicotinic acid]", "values": [{"measurement": "inhibition at 0.1 µM", "result": 50.2, "unit": "%"}]}
{"smiles": "O=C(O)c1ccc(-c2ccc(NC(=O)N3CCC(=Cc4ccccn4)CC3)cn2)cc1", "note": "[Example 28, 4-(5-(4-(pyridin-2-ylmethylene)piperidine-1-carboxamido)pyridin-2-yl)benzoic acid]", "values": [{"measurement": "inhibition at 0.1 µM", "result": 53.2, "unit": "%"}]}
{"smiles": "O=C(Nc1nccs1)c1ccc(-c2ccc(NC(=O)N3CCC(=Cc4ccccn4)CC3)cn2)cc1", "note": "[Example 29, 4-(pyridin-2-ylmethylene)-N-(6-(4-(thiazol-2-ylcarbamoyl)phenyl)pyridin-3-yl)piperidine-1-carboxamide]", "values": [{"measurement": "inhibition at 0.1 µM", "result": 78.8, "unit": "%"}]}
{"smiles": "O=C(NC1CC1)c1ccc(-c2ccc(NC(=O)N3CCC(=Cc4ccccn4)CC3)cn2)cc1", "note": "[Example 30, N-(6-(4-(cyclopropylcarbamoyl)phenyl)pyridin-3-yl)-4-(pyridin-2-ylmethylene)piperidine-1-carboxamide]", "values": [{"measurement": "inhibition at 0.1 µM", "result": 67.1, "unit": "%"}]}
{"smiles": "CN(C)C(=O)c1ccc(-c2ccc(NC(=O)N3CCC(=Cc4ccccn4)CC3)cn2)cc1", "note": "[Example 31, N-(6-(4-(dimethylcarbamoyl)phenyl)pyridin-3-yl)-4-(pyridin-2-ylmethylene)piperidine-1-carboxamide]", "values": [{"measurement": "inhibition at 0.1 µM", "result": 52.9, "unit": "%"}]}
{"smiles": "CS(=O)(=O)NC(=O)c1ccc(-c2ccc(NC(=O)N3CCC(=Cc4ccccn4)CC3)cn2)cc1", "note": "[Example 32, N-(6-(4-(methylsulfonylcarbamoyl)phenyl)pyridin-3-yl)-4-(pyridin-2-ylmethylene)piperidine-1-carboxamide]", "values": [{"measurement": "inhibition at 0.1 µM", "result": 76.1, "unit": "%"}]}
{"smiles": "O=C(O)c1ccc(-c2ncc(NC(=O)N3CCC(=Cc4ccccn4)CC3)cn2)cc1", "note": "[Example 33, 4-(5-(4-(pyridin-2-ylmethylene)piperidine-1-carboxamido)pyrimidin-2-yl)benzoic acid]", "values": [{"measurement": "inhibition at 0.1 µM", "result": 50, "unit": "%"}]}
{"smiles": "O=C(NC1CCN(c2ccc(CCn3ccnn3)cc2)CC1)N1CCC(=Cc2cc(F)ccc2F)CC1", "note": "[Example 34, N-(1-(4-(2-(1H-1,2,3-triazol-1-yl)ethyl)phenyl)piperidin-4-yl)-4-(2,5-difluorobenzylidene)piperidine-1-carboxamide]", "values": [{"measurement": "inhibition at 0.1 µM", "result": 77.8, "unit": "%"}]}
{"smiles": "O=C(NC1CCN(CC(F)(F)F)CC1)N1CCC(=Cc2cc(F)ccc2F)CC1", "note": "[Example 35, 4-(2,5-difluorobenzylidene)-N-(1-(2,2,2-trifluoroethyl)piperidin-4-yl)piperidine-1-carboxamide]", "values": [{"measurement": "inhibition at 0.1 µM", "result": 77.2, "unit": "%"}]}
{"smiles": "COc1ccc(CN2CCC(NC(=O)N3CCC(=Cc4cc(F)ccc4F)CC3)CC2)cc1Cl", "note": "[Example 36, N-(1-(3-chloro-4-methoxybenzyl)piperidin-4-yl)-4-(2,5-difluorobenzylidene)piperidine-1-carboxamide]", "values": [{"measurement": "inhibition at 0.1 µM", "result": 58.3, "unit": "%"}]}
{"smiles": "N#Cc1cccc(CN2CCC(NC(=O)N3CCC(=Cc4cc(F)ccc4F)CC3)CC2)c1", "note": "[Example 37, N-(1-(3-cyanobenzyl)piperidin-4-yl)-4-(2,5-difluorobenzylidene)piperidine-1-carboxamide]", "values": [{"measurement": "inhibition at 0.1 µM", "result": 64.8, "unit": "%"}]}
{"smiles": "O=C(NC1CCN(C(=O)C(F)(F)F)CC1)N1CCC(=Cc2cc(F)ccc2F)CC1", "note": "[Example 38, 4-(2,5-difluorobenzylidene)-N-(1-(2,2,2-trifluoroacetyl)piperidin-4-yl)piperidine-1-carboxamide]", "values": [{"measurement": "inhibition at 0.1 µM", "result": 82.9, "unit": "%"}]}
{"smiles": "CC(F)(F)C(=O)N1CCC(NC(=O)N2CCC(=Cc3cc(F)ccc3F)CC2)CC1", "note": "[Example 40, 4-(2,5-difluorobenzylidene)-N-(1-(2,2-difluoropropanoyl)piperidin-4-yl)piperidine-1-carboxamide]", "values": [{"measurement": "inhibition at 0.1 µM", "result": 71.4, "unit": "%"}]}
{"smiles": "COC(=O)c1ccc(N2CCC(NC(=O)N3CCC(=Cc4cc(F)ccc4F)CC3)CC2)cc1", "note": "[Example 41, Methyl 4-(4-(4-(2,5-difluorobenzylidene)piperidine-1-carboxamido)piperidin-1-yl)benzoate]", "values": [{"measurement": "inhibition at 0.1 µM", "result": 59, "unit": "%"}]}
